For one data set, the target named is T1, HsCLK2 (Homo sapiens, UniProt P49760).
T1 construct: purchased Eurofins (contract assay)
Briefly: kinase inhibition study by Eurofins. The format is biochemical. Conditions: duplicate. The method, then:
(§1) Several inhibition studies for human kinases (HsCLK2, HsCLK3, HsCLK4), as well as the KINOMEscan^SM Assaywere performed by the Eurofins company, following protocols reported on their website.

The target in another data set is T2, HsCLK3 (Homo sapiens, UniProt P49761).
T2 construct: purchased Eurofins (contract assay)
Briefly: kinase inhibition study by Eurofins. It is filed as biochemical. Conditions: duplicate. The method, then: as §1

Another data set has as its target T3, HsCLK4 (Homo sapiens, UniProt Q9HAZ1).
T3 construct: purchased Eurofins (contract assay)
Briefly: kinase inhibition study by Eurofins. The format is biochemical. The method, then: as §1

Another data set addresses T4, HsDYRK1A (Homo sapiens, UniProt Q13627).
T4 construct: host or cells: Sf9 insect cells (baculovirus)
Briefly: ADP-Glo kinase assay. The format is biochemical. Conditions: for remaining activity at 1 µM / remaining activity at 10 µM: n=2, read-out: % of residual activity Hs_DYRK1A; for pIC50: 10 µM ATP, duplicate. (ADP-Glo first removes unused ATP, then detects ADP through luciferase.)

The next data set has as its target T5, MmCLK1 (Mus musculus, UniProt P22518).
T5 construct: host or cells: bacteria
Briefly: ADP-Glo kinase assay. It is filed as biochemical. The settings on record: for remaining activity at 1 µM / remaining activity at 10 µM: n=2, read-out: % of residual activity Mm_CLK1.

In another data set the target is T6, Hs_CDK9/CyclinT (Homo sapiens, UniProt P50750).
T6 construct: host or cells: Sf9 insect cells (baculovirus)
Briefly: ADP-Glo kinase assay, primary screen. The settings on record: n=2, read-out: % of residual activity Hs_CDK9/CyclinT. The format is biochemical.

A short description of data set [1]: cytotoxic assay, nuclei count (Hoechst, HCS). Conditions: human, MDA-MB-231 cells (breast carcinoma); 48 h treatment; read-out: Cytotoxic studies IC50 MDA-MB-231. It is filed as cell-based.
The next data set concerns Human skin fibroblasts. Briefly: cytotoxic assay, nuclei count (Hoechst, HCS). The format is cell-based. The settings on record: summary of Table S2.
Data set [2] concerns the target T7, ABL1(E255K)-phosphorylated (Homo sapiens, UniProt P00519, E255K).
T7 construct: purchased Eurofins DiscoverX KINOMEscan (scanMAX 468)
Briefly: KINOMEscan. It is filed as binding. The settings on record: read-out: Percent Control.

For data set [3], the target named is T8, ABL1(M351T)-phosphorylated (Homo sapiens, UniProt P00519, M351T).
T8 construct: purchased Eurofins DiscoverX KINOMEscan (scanMAX 468)
Briefly: KINOMEscan. The format is binding. Conditions: read-out: Percent Control.

In data set [4] the target is T9, ABL1(Q252H)-nonphosphorylated (Homo sapiens, UniProt P00519, Q252H).
T9 construct: purchased Eurofins DiscoverX KINOMEscan (scanMAX 468)
Briefly: KINOMEscan. Conditions: read-out: Percent Control. The format is binding.

A further data set deals with T10, ASK2 (Homo sapiens, UniProt O95382).
T10 construct: purchased Eurofins DiscoverX KINOMEscan (scanMAX 468)
Briefly: KINOMEscan. It is filed as binding. The settings on record: read-out: Percent Control.

The target in the next data set is T11, CDK4-cyclinD1 (Homo sapiens, UniProt P11802).
T11 construct: purchased Eurofins DiscoverX KINOMEscan (scanMAX 468)
Briefly: KINOMEscan. The format is binding. The settings on record: read-out: Percent Control.

A further data set concerns the target T12, DCAMKL2 (Homo sapiens, UniProt Q8N568).
T12 construct: purchased Eurofins DiscoverX KINOMEscan (scanMAX 468)
Briefly: KINOMEscan. The format is binding. Conditions: read-out: Percent Control.

Another data set deals with T13, EPHB6 (Homo sapiens, UniProt O15197).
T13 construct: purchased Eurofins DiscoverX KINOMEscan (scanMAX 468)
Briefly: KINOMEscan. It is filed as binding. The settings on record: read-out: Percent Control.

Another data set addresses T14, FRK (Homo sapiens, UniProt P42685).
T14 construct: purchased Eurofins DiscoverX KINOMEscan (scanMAX 468)
Briefly: KINOMEscan. It is filed as binding. The settings on record: read-out: Percent Control.

A further data set concerns the target T15, HPK1 (Homo sapiens, UniProt Q92918).
T15 construct: purchased Eurofins DiscoverX KINOMEscan (scanMAX 468)
Briefly: KINOMEscan. It is filed as binding. The settings on record: read-out: Percent Control.

The next data set deals with T16, MARK2 (Homo sapiens, UniProt Q7KZI7).
T16 construct: purchased Eurofins DiscoverX KINOMEscan (scanMAX 468)
Briefly: KINOMEscan. It is filed as binding. Conditions: read-out: Percent Control.

In a further data set the target is T17, MST3 (Homo sapiens, UniProt Q9Y6E0).
T17 construct: purchased Eurofins DiscoverX KINOMEscan (scanMAX 468)
Briefly: KINOMEscan. It is filed as binding. The settings on record: read-out: Percent Control.

In the next data set the target is T18, PAK7 (Homo sapiens, UniProt Q9P286).
T18 construct: purchased Eurofins DiscoverX KINOMEscan (scanMAX 468)
Briefly: KINOMEscan. It is filed as binding. Conditions: read-out: Percent Control.

Another data set concerns the target T19, RIPK5 (Homo sapiens, UniProt Q6XUX3).
T19 construct: purchased Eurofins DiscoverX KINOMEscan (scanMAX 468)
Briefly: KINOMEscan. The format is binding. Conditions: read-out: Percent Control.

Data set [5] addresses T20, RSK2(Kin.Dom.1-N-terminal) (Homo sapiens, UniProt P51812).
T20 construct: RSK2(Kin.Dom.1-N-terminal); purchased Eurofins DiscoverX KINOMEscan (scanMAX 468)
Briefly: KINOMEscan. It is filed as binding. Conditions: read-out: Percent Control.

For a further data set, the target named is T21, SGK (Homo sapiens, UniProt O00141).
T21 construct: purchased Eurofins DiscoverX KINOMEscan (scanMAX 468)
Briefly: KINOMEscan. It is filed as binding. Conditions: read-out: Percent Control.

A further data set deals with T22, SRPK2 (Homo sapiens, UniProt P78362).
T22 construct: purchased Eurofins DiscoverX KINOMEscan (scanMAX 468)
Briefly: KINOMEscan. It is filed as binding. The settings on record: read-out: Percent Control.

A further data set has as its target T23, TLK2 (Homo sapiens, UniProt Q86UE8).
T23 construct: purchased Eurofins DiscoverX KINOMEscan (scanMAX 468)
Briefly: KINOMEscan. The format is binding. Conditions: read-out: Percent Control.

In a further data set the target is T24, TRKB (Homo sapiens, UniProt Q16620).
T24 construct: purchased Eurofins DiscoverX KINOMEscan (scanMAX 468)
Briefly: KINOMEscan. It is filed as binding. The settings on record: read-out: Percent Control.

For another data set, the target named is T25, ULK3 (Homo sapiens, UniProt Q6PHR2).
T25 construct: purchased Eurofins DiscoverX KINOMEscan (scanMAX 468)
Briefly: KINOMEscan. Conditions: read-out: Percent Control. It is filed as binding.

[6] abbreviates: mouse CLK1 orthologue, read-out: IC50 MmCLK1.

pIC50: −log10 of the molar value. Values joined by “and” are separate entries in the source; they are usually repeats but may differ in a detail not shown here. Equal values may be shown once. Where a name gives a salt, the structure may show the parent alone. Read-outs that look alike come from different tables or passages of the source. A value given as a limit tells only on which side of the number the result lay.

T5 sequence (P22518 whole entry): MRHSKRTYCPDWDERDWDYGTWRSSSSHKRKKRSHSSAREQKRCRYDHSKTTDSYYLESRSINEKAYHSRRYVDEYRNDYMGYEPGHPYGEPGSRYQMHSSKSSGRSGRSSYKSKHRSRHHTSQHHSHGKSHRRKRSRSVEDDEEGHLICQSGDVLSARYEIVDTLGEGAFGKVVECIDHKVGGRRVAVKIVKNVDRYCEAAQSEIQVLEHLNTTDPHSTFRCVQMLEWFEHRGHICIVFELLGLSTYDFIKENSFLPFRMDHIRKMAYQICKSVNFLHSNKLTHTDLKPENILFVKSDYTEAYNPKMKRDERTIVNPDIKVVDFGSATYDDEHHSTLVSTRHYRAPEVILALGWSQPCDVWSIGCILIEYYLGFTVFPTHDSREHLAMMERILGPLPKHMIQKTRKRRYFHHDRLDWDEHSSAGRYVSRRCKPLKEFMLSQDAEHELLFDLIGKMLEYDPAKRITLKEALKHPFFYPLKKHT
T2 sequence (P49761 whole entry): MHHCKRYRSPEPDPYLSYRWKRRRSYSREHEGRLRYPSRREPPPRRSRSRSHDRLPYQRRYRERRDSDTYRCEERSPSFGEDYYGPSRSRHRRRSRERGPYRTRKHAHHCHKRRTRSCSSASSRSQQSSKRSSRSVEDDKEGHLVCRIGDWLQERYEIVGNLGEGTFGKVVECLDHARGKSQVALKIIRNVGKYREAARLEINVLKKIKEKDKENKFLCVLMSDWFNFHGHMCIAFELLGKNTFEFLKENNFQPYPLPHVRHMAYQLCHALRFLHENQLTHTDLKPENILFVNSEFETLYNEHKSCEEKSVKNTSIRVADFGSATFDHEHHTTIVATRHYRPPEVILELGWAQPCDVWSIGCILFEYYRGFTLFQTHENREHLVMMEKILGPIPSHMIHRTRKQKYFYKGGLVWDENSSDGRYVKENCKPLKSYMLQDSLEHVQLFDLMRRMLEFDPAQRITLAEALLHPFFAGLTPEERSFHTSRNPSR
T3 sequence (Q9HAZ1 whole entry): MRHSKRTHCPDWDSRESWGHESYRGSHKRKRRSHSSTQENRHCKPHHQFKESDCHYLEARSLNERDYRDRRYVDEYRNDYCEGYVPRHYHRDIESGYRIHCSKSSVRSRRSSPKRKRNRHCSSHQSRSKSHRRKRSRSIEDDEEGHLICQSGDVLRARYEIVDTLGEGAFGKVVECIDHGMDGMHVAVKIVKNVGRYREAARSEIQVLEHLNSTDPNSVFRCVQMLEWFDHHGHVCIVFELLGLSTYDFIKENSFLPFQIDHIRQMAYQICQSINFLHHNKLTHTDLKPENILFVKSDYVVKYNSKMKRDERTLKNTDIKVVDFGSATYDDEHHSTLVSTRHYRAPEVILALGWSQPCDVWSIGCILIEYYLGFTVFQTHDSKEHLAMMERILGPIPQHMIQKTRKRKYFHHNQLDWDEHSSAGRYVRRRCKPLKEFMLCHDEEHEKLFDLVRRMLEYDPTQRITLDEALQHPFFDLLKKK
T6 sequence (P50750 whole entry): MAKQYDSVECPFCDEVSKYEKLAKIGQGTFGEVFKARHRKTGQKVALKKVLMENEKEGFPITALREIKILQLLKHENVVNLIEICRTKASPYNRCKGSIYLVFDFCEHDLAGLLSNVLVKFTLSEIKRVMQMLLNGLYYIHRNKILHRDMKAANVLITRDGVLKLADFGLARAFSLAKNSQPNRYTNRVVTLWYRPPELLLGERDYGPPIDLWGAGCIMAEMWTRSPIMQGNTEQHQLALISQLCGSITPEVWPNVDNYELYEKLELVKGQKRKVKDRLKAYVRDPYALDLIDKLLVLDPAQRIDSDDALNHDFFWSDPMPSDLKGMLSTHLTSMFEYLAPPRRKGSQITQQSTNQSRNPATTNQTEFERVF
T6 sequence (O60563 whole entry partner): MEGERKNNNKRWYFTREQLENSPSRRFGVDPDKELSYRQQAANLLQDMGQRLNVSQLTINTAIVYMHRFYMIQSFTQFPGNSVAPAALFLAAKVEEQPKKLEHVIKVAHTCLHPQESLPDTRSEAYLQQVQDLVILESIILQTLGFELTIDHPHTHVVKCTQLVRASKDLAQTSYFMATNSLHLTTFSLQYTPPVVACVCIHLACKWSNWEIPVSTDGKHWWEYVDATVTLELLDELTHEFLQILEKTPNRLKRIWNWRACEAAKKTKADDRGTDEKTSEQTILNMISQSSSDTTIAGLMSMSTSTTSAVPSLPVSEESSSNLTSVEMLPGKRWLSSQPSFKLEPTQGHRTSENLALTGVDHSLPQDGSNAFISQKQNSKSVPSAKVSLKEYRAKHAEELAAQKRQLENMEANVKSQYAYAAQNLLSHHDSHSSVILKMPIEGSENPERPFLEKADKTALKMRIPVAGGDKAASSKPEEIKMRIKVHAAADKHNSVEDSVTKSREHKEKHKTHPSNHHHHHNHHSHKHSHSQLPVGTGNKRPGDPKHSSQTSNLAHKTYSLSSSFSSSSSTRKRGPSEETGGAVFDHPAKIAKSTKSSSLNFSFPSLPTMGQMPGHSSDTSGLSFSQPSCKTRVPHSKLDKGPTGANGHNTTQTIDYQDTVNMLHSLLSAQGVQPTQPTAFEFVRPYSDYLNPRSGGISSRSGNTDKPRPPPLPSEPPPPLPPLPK
T1 sequence (P49760 whole entry): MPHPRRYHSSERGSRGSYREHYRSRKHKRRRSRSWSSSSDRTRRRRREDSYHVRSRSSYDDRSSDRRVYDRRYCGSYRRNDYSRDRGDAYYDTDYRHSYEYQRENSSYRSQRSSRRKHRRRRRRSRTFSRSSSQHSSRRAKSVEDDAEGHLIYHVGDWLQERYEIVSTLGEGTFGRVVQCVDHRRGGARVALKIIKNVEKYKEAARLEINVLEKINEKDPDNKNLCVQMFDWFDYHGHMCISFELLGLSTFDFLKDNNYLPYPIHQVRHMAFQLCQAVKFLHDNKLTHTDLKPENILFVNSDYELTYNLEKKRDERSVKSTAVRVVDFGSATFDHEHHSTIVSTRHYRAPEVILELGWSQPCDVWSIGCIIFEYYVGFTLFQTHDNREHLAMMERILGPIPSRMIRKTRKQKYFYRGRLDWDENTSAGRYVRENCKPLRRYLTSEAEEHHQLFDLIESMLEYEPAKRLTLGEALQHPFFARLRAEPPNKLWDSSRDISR
T20 sequence (P51812 1-397 limits assumed): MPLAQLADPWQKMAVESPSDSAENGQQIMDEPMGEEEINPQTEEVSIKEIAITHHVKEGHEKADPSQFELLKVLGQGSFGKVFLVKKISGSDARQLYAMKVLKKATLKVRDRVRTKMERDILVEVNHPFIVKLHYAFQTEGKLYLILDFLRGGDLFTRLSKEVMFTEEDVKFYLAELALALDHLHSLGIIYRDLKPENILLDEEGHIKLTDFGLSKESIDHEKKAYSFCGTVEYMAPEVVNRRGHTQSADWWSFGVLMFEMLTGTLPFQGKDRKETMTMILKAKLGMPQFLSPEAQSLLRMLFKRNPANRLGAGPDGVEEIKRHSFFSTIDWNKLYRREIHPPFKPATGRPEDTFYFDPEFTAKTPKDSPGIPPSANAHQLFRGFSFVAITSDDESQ
T21 sequence (O00141 whole entry): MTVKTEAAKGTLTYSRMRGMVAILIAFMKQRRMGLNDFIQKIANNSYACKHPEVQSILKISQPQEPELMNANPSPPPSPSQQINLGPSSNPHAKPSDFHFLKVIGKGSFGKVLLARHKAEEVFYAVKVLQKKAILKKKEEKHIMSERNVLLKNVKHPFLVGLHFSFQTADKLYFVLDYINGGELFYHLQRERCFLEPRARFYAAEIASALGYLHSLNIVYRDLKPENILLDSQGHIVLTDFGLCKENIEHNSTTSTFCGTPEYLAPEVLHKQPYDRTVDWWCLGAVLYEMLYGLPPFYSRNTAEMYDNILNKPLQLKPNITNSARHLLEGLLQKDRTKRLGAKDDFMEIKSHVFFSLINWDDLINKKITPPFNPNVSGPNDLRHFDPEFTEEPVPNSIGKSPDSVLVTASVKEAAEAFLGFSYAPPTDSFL
T18 sequence (Q9P286 whole entry): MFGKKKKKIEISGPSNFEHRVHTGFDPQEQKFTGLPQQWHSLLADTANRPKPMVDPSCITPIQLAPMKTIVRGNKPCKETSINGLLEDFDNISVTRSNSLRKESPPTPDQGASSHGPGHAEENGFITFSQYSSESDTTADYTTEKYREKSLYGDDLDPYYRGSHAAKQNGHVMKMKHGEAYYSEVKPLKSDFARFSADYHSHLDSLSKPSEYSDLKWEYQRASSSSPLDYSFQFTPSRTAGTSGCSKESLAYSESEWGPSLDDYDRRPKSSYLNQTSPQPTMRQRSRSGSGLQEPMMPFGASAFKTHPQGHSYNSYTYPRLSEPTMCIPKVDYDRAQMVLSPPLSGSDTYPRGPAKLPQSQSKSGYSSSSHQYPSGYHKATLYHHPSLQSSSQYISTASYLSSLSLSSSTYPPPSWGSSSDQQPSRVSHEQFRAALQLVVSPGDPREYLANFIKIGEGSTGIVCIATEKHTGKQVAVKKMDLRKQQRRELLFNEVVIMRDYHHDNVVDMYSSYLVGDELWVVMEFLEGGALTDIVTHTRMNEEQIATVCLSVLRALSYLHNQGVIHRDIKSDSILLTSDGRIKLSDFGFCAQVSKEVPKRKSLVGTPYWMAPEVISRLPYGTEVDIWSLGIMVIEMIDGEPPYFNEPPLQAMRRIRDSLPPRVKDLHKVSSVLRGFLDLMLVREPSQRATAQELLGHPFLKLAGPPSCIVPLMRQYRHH

What is called pIC50 is the negative decadic logarithm of the IC50, by convention in mol/L. As usually defined, the IC50 is the point on the concentration scale where inhibition reaches its midpoint. Consider `Cc1ccc(-n2cc(COc3cccc4cnc(Nc5cc(Cl)cc(Cl)c5)nc34)nn2)c([N+](=O)[O-])c1` [7b, N-(3,5-dichlorophenyl)-8-((1-(4-methyl-2-nitrophenyl)-1H-1,2,3-triazol-4-yl)methoxy)quinazolin-2-amine], for which the pIC50 against HsCLK2 was 7.01; at HsCLK3 it was 5.48; at HsCLK4 (duplicate), 6.42; on HsDYRK1A, < 4.00; at MmCLK1 (setting [6]) it was 6.43 to 6.55. At HsDYRK1A, the “activity on the human DYRK1A” value is “completely inactive”. Also, the remaining activity at 1 µM at HsDYRK1A is ≥ 100%; on MmCLK1 it was 14%; at Hs_CDK9/CyclinT it was 80%. The figures for the remaining activity at 10 µM on HsDYRK1A, at MmCLK1 and on Hs_CDK9/CyclinT were 80%, 17% and 34%, respectively. In data set [1], the IC50 at 48 h was > 25000 nM. Moreover, the “toxicity towards fibroblasts” value with Human skin fibroblasts is reported as “non-toxic”.
Turning to `O=[N+]([O-])c1cc(Br)ccc1-n1cc(COc2cccc3cnc(Nc4cccc(Cl)c4)nc23)nn1` [12d, N-(3-Chlorophenyl)-8-((1-(4-bromo-2-nitrophenyl)-1H-1,2,3-triazol-4-yl)methoxy)quinazolin-2-amine], the remaining activity at 1 µM on HsDYRK1A is ≥ 100%; on MmCLK1, 27%; on Hs_CDK9/CyclinT, 85%. The figures for the remaining activity at 10 µM at HsDYRK1A, on MmCLK1 and at Hs_CDK9/CyclinT were 77%, 22% and 43%, respectively. The pIC50 on MmCLK1 (setting [6]) is 6.41. Also, the IC50 at 48 h in [1] was > 25000 nM. Further, in the data set on Human skin fibroblasts, the “toxicity towards fibroblasts” value is listed as “moderate toxicity”.
Regarding `O=[N+]([O-])c1cc(CO)ccc1-n1cc(COc2cccc3cnc(Nc4cccc(Cl)c4)nc23)nn1` [12e, 4-(4-(((2-((3-Chlorophenyl)amino)quinazolin-8-yl)oxy)methyl)-1H-1,2,3-triazol-1-yl)-3-nitrobenzyl alcohol], the pIC50 at HsCLK2 was 7.30; at HsCLK3, 5.12 and 5.13; against HsCLK4 it was 6.70 to 6.82; against HsCLK4 (duplicate) it was 6.71; against HsDYRK1A, 5.64 and 5.63; at MmCLK1 (setting [6]), 6.72. Besides, the remaining activity at 1 µM at HsDYRK1A is 84%; at MmCLK1, 74%; at Hs_CDK9/CyclinT, 74%. Also, the figures for the remaining activity at 10 µM on HsDYRK1A, on MmCLK1 and at Hs_CDK9/CyclinT were 31%, 35% and 21%, respectively. For the same compound, the IC50 at 48 h in data set [1] turned out to be 6000 nM. In the data set with Human skin fibroblasts, the “toxicity towards fibroblasts” value was “moderate toxicity”.
Turning to `COC(=O)c1ccc(-n2cc(COc3cccc4cnc(Nc5cccc(Cl)c5)nc34)nn2)c([N+](=O)[O-])c1` [12f, Methyl 4-(4-(((2-((3-chlorophenyl)amino)quinazolin-8-yl)oxy)methyl)-1H-1,2,3-triazol-1-yl)-3-nitrobenzoate], the remaining activity at 1 µM is ≥ 100% on HsDYRK1A, 28% at MmCLK1 and 73% on Hs_CDK9/CyclinT. Also, the remaining activity at 10 µM at HsDYRK1A amounted to 93%; on MmCLK1 it was 18%; on Hs_CDK9/CyclinT, 45%. In addition, the negative logarithm of the IC50 (pIC50) on MmCLK1 (setting [6]) is 6.61. Further, the IC50 at 48 h in data set [1] was > 25000 nM. In the data set with Human skin fibroblasts, the “toxicity towards fibroblasts” value is on record as “non-active”.
For the compound `O=C(O)c1ccc(-n2cc(COc3cccc4cnc(Nc5cccc(Cl)c5)nc34)nn2)c([N+](=O)[O-])c1` [12g, 4-(4-(((2-((3-Chlorophenyl)amino)quinazolin-8-yl)oxy)methyl)-1H-1,2,3-triazol-1-yl)-3-nitrobenzoic acid], the pIC50 against HsCLK2 is 7.55; at HsCLK3, 6.47; at HsCLK4 (duplicate), 7.26; against HsDYRK1A it was 5.40; at MmCLK1 (setting [6]), 7.62. In addition, the remaining activity at 1 µM came out at 86% on HsDYRK1A, 13% on MmCLK1 and 38% on Hs_CDK9/CyclinT. Further, the remaining activity at 10 µM came out at 50% at HsDYRK1A, 5% at MmCLK1 and 21% on Hs_CDK9/CyclinT. In [1], the IC50 at 48 h was > 25000 nM. Further, the “toxicity towards fibroblasts” value in the data set with Human skin fibroblasts is “non-active”.
On to `N[C@H]1CC[C@@H](n2cc(COc3cccc4cnc(Nc5cc(Cl)cc(Cl)c5)nc34)nn2)CC1` [16b, 8-((1-((cis)-4-Aminocyclohexyl)-1H-1,2,3-triazol-4-yl)methoxy)-N-(3,5-dichlorophenyl)quinazolin-2-amine hydrochloride], for which the pIC50 at HsCLK2 is 7.70; against HsCLK3, 5.49; against HsCLK4 (duplicate), 7.08; at HsDYRK1A, 5.72; on MmCLK1 (setting [6]) it was 6.74. Also, the remaining activity at 1 µM on HsDYRK1A came to 85%; at MmCLK1, 19%; on Hs_CDK9/CyclinT it was 61%. Moreover, the remaining activity at 10 µM was 38% on HsDYRK1A, 8% at MmCLK1 and 18% on Hs_CDK9/CyclinT. In addition, in data set [1], the IC50 at 48 h was 2000 nM.
`Cc1ccc(-n2cc(COc3cccc4cnc(Nc5cccc(Cl)c5)nc34)nn2)c([N+](=O)[O-])c1` [DB18] had a pIC50 on MmCLK1 of 6.92. Moreover, the remaining binding at 1 µM was found to be 97% in [2]; 99% in data set [3]; 88% in data set [4]; 99% on ASK2; 93% at CDK4-cyclinD1; 100% at DCAMKL2. Further, the remaining binding at 1 µM was determined as 95% on EPHB6; 83% on FRK; 100% at HPK1; 94% on MARK2; 100% at MST3; 92% on PAK7. In addition, the remaining binding at 1 µM on RIPK5 worked out at 100%; in data set [5], 100%; on SGK, 100%; at SRPK2, 87%; on TLK2, 100%; on TRKB it was 86%. The remaining binding at 1 µM at ULK3 turned out to be 100%.
